In PubChem BioAssay AID330 (DTP/NCI, 2004):
Where “and” joins values, the source holds several entries; their conditions need not be identical. Equal entries are not always repeated. Inconclusive results and toxic doses are left out.

Test system: P388 leukemia ip, CD2F1 mice, survival T/C
Assay: NCI In Vivo Anticancer Drug Screen. Data for tumor model P388 Leukemia (intraperitoneal) in CD2F1 (CDF1) mice
Settings: endpoint: median survival time, higher = longer survival
Procedure, shortened: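 Mice carrying the transplanted tumor received test compound or vehicle. Survival was recorded in each group, and the value is the treated-group measurement divided by that of the vehicle-treated control group.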

[1] = dose: 50.0 mg/kg/injection, schedule: Q01DX005 (ip), vehicle: Klucel (hydroxypropylcellulose) (HPC)
[2] = dose: 4.0 mg/kg/injection, schedule: Q01DX009 (ip), vehicle: Klucel (hydroxypropylcellulose) (HPC)
[3] = dose: 8.0 mg/kg/injection, schedule: Q01DX009 (ip), vehicle: Klucel (hydroxypropylcellulose) (HPC)
[4] = dose: 60.0 mg/kg/injection, schedule: Q01DX005 (ip), vehicle: Klucel (hydroxypropylcellulose) (HPC)
[5] = dose: 120.0 mg/kg/injection, schedule: Q01DX005 (ip), vehicle: Klucel (hydroxypropylcellulose) (HPC)
[6] = dose: 200.0 mg/kg/injection, schedule: Q01DX005 (ip), vehicle: saline with Tween-80
[7] = dose: 50.0 mg/kg/injection, schedule: Q01DX009 (ip), vehicle: saline with Tween-80
[8] = dose: 100.0 mg/kg/injection, schedule: Q01DX009 (ip), vehicle: saline with Tween-80
[9] = dose: 12.5 mg/kg/injection, schedule: Q01DX009 (ip), vehicle: saline with Tween-80
[10] = dose: 60.0 mg/kg/injection, schedule: Q01DX005 (ip), vehicle: saline with Tween-80
[11] = dose: 120.0 mg/kg/injection, schedule: Q01DX005 (ip), vehicle: saline with Tween-80
[12] = dose: 240.0 mg/kg/injection, schedule: Q01DX005 (ip), vehicle: saline with Tween-80

`CCCCNC1C2CCC(C)(C1O)C2(C)C` (stereo not given) was tested, and the T/C [1] was 97 % of control.

With `C=C1C2CC[C@@H]3C45C=NC[C@@](C)(CCC4)[C@@H]5CCC3(C2)[C@@H]1OC(C)=O` the T/C [2] was 94 % of control, the T/C [3] was 94 % of control and the T/C (dose: 16.0 mg/kg/injection, schedule: Q01DX009 (ip), vehicle: Klucel (hydroxypropylcellulose) (HPC)) was 95 % of control. The T/C (dose: 32.0 mg/kg/injection, schedule: Q01DX009 (ip), vehicle: Klucel (hydroxypropylcellulose) (HPC)) was 96 % of control.

In the case of `O=C(Nc1ccc(C2=NCCN2)cc1)c1cc2ccc(C3=NCCN3)cc2o1`, the T/C (dose: 100.0 mg/kg/injection, schedule: Q04DX003 (ip), vehicle: suspension in saline) is reported as 104 % of control and the T/C (dose: 200.0 mg/kg/injection, schedule: Q04DX003 (ip), vehicle: suspension in saline) is reported as 119 % of control.

`O=S(=O)(O)c1cc(O)c(O)c(S(=O)(=O)O)c1` was tested, and the T/C (dose: 100.0 mg/kg/injection, schedule: Q01DX009 (ip), vehicle: saline) was 101 % of control and 95 % of control, the T/C (dose: 200.0 mg/kg/injection, schedule: Q01DX009 (ip), vehicle: saline) was 100 % of control and 94 % of control and the T/C (dose: 400.0 mg/kg/injection, schedule: Q01DX009 (ip), vehicle: saline) was 100 % of control and 103 % of control. For the same compound, the T/C (dose: 600.0 mg/kg/injection, schedule: Q01DX009 (ip), vehicle: saline) was 104 % of control and 90 % of control.

`Cc1cccc(C(O)c2cnc(C)n2Cc2ccccc2)c1` (stereo not given) was tested, and the T/C [4] was 101 % of control, the T/C [5] was 109 % of control and the T/C (dose: 240.0 mg/kg/injection, schedule: Q01DX005 (ip), vehicle: Klucel (hydroxypropylcellulose) (HPC)) was 100 % of control.

`CS(=O)(=O)N/N=C/C(=O)O` was tested, and the T/C (dose: 12.5 mg/kg/injection, schedule: Q01DX009 (ip), vehicle: water) was 118 % of control, the T/C (dose: 50.0 mg/kg/injection, schedule: Q01DX009 (ip), vehicle: water) was 160 % of control and the T/C (dose: 100.0 mg/kg/injection, schedule: Q01DX009 (ip), vehicle: water) was 157 % of control and 159 % of control.

For `C=C1CCC2C(C)(CO)C(O)CCC2(C)C1CCC1=CCOC1=O` (stereo not given), the T/C (dose: 11.0 mg/kg/injection, schedule: Q01DX005 (ip), vehicle: Klucel (hydroxypropylcellulose) (HPC)) was 110 % of control, the T/C (dose: 22.0 mg/kg/injection, schedule: Q01DX005 (ip), vehicle: Klucel (hydroxypropylcellulose) (HPC)) was 99 % of control and the T/C (dose: 44.0 mg/kg/injection, schedule: Q01DX005 (ip), vehicle: Klucel (hydroxypropylcellulose) (HPC)) was 99 % of control. For the same compound, the T/C (dose: 88.0 mg/kg/injection, schedule: Q01DX005 (ip), vehicle: Klucel (hydroxypropylcellulose) (HPC)) was 97 % of control.

For `O=C(O)C(Cc1ccc(O)cc1)c1ccc(C(Cc2ccc(O)cc2)C(=O)O)cc1` (stereo not given), the T/C (dose: 50.0 mg/kg/injection, schedule: Q01DX005 (ip), vehicle: saline with Tween-80) was 105 % of control, the T/C (dose: 100.0 mg/kg/injection, schedule: Q01DX005 (ip), vehicle: saline with Tween-80) was 102 % of control and the T/C [6] was 100 % of control.

For `O=c1c(Cl)c2oc3ccc([N+](=O)[O-])cc3nc-2c(Cl)c1Cl`, the T/C [7] was 109 % of control and the T/C [8] was 107 % of control.

For `C=C1C2CCC3C(CCC4C5(C)CCCC43CN3CCOC35)(C2)C1O` (stereo not given), the T/C (dose: 1.0 mg/kg/injection, schedule: Q01DX009 (ip), vehicle: Klucel (hydroxypropylcellulose) (HPC)) was 95 % of control, the T/C (dose: 2.0 mg/kg/injection, schedule: Q01DX009 (ip), vehicle: Klucel (hydroxypropylcellulose) (HPC)) was 97 % of control and the T/C [2] was 98 % of control. The T/C [3] was 97 % of control.

In the case of `O=C1NC(=O)C(=Cc2c(Cl)cccc2Cl)C(=O)N1`, the T/C [9] is reported as 116 % of control, the T/C (dose: 25.0 mg/kg/injection, schedule: Q01DX009 (ip), vehicle: saline with Tween-80) is reported as 122 % of control and the T/C [7] is reported as 122 % of control.

For `COc1ccc(Nc2c3ccccc3nc3ccccc23)cc1`, the T/C [9] was 111 % of control, the T/C [7] was 151 % of control and the T/C [8] was 109 % of control.

With `O=C1NNC(=O)c2ccccc2C(=O)S1` the T/C [10] was 102 % of control, the T/C [11] was 101 % of control and the T/C [12] was 97 % of control.

In the case of `COc1ccc2nc3cc(Cl)ccc3c(NCCNCCNCCNc3c4ccc(Cl)cc4nc4ccc(OC)cc34)c2c1`, the T/C [7] is reported as 115 % of control.

In the case of `CCN(CC)CN1C(=O)CC2(C1=O)c1ccccc1-c1ccccc12`, the T/C (dose: 100.0 mg/kg/injection, schedule: Q01DX001 (ip), vehicle: water) is reported as 109 % of control, the T/C (dose: 200.0 mg/kg/injection, schedule: Q01DX001 (ip), vehicle: water) is reported as 106 % of control and the T/C (dose: 400.0 mg/kg/injection, schedule: Q01DX001 (ip), vehicle: water) is reported as 110 % of control.

In the case of `CN(CCC(CCC(=O)O)(C(=O)O)c1ccccc1)Cc1ccccc1` (stereo not given), the T/C [1] is reported as 92 % of control, the T/C (dose: 100.0 mg/kg/injection, schedule: Q01DX005 (ip), vehicle: Klucel (hydroxypropylcellulose) (HPC)) is reported as 100 % of control and the T/C (dose: 200.0 mg/kg/injection, schedule: Q01DX005 (ip), vehicle: Klucel (hydroxypropylcellulose) (HPC)) is reported as 98 % of control.

In the case of `O=C1OC2C(O)COC2(N=Nc2ccc(Cl)cc2)/C1=N/Nc1ccccc1` (stereo not given), the T/C (dose: 6.25 mg/kg/injection, schedule: Q01DX005 (ip), vehicle: saline with Tween-80) is reported as 104 % of control, the T/C (dose: 12.5 mg/kg/injection, schedule: Q01DX005 (ip), vehicle: saline with Tween-80) is reported as 93 % of control and the T/C (dose: 25.0 mg/kg/injection, schedule: Q01DX005 (ip), vehicle: saline with Tween-80) is reported as 89 % of control. The T/C [6] was 90 % of control.

`CC(C)NC(=O)N1C2C3CCC(C)(OC3(C)C)C21` (stereo not given) was tested, and the T/C (dose: 50.0 mg/kg/injection, schedule: Q01DX005 (ip), vehicle: saline) was 108 % of control, the T/C (dose: 100.0 mg/kg/injection, schedule: Q01DX005 (ip), vehicle: saline) was 101 % of control and the T/C (dose: 200.0 mg/kg/injection, schedule: Q01DX005 (ip), vehicle: saline) was 101 % of control.

In the case of `CCOC(=O)CNC(=O)NCc1ccccc1`, the T/C [10] is reported as 108 % of control, the T/C [11] is reported as 90 % of control and the T/C [12] is reported as 96 % of control.

For `N=[N+]=CC(=O)OCC(N)C(=O)O` (stereo not given), the T/C (dose: 2.3 mg/kg/injection, schedule: Q01DX009 (ip), vehicle: water) was 118 % of control, the T/C (dose: 6.25 mg/kg/injection, schedule: Q04DX003 (ip), vehicle: water) was 120 % of control and the T/C (dose: 18.8 mg/kg/injection, schedule: Q01DX009 (ip), vehicle: water) was 86 % of control and 91 % of control. The T/C (dose: 20.0 mg/kg/injection, schedule: Q01DX009 (ip), vehicle: saline) was 169 % of control, the T/C (dose: 25.0 mg/kg/injection, schedule: Q01DX009 (ip), vehicle: saline) was 153 % of control and the T/C (dose: 25.0 mg/kg/injection, schedule: Q04DX003 (ip), vehicle: water) was 157 % of control. The T/C (dose: 40.0 mg/kg/injection, schedule: Q01DX009 (ip), vehicle: saline) was 107 % of control and 121 % of control, the T/C (dose: 41.7 mg/kg/injection, schedule: Q01DX009 (ip), vehicle: saline) was 166 % of control and the T/C (dose: 50.0 mg/kg/injection, schedule: Q04DX003 (ip), vehicle: water) was 111 % of control.

In the case of `CC1CC(C)(C)N=C(C2(c3ccccc3)CC2)O1` (stereo not given), the T/C [7] is reported as 109 % of control, the T/C [8] is reported as 109 % of control and the T/C (dose: 200.0 mg/kg/injection, schedule: Q01DX009 (ip), vehicle: saline with Tween-80) is reported as 100 % of control.

For `CC1(C)N=C(N)N=C(N)N1c1cccc(CCCCc2ccc(S(=O)(=O)F)cc2)c1`, the T/C (dose: 25.0 mg/kg/injection, schedule: Q04DX003 (ip), vehicle: saline) was 110 % of control.

For `CCCCCCCCN1CCOCCOCCN(CCCCCCCC)c2nc(Cl)nc(n2)NCCOCCOCCNc2nc(Cl)nc1n2`, the T/C [10] was 98 % of control and the T/C [11] was 93 % of control.

With `C=C1C(=O)C23C(O)CC4C(C)(C)[C@@H](OC(C)=O)CCC4(C)[C@]2(O)CCC1[C@@H]3O` (stereo not given in full) the T/C (dose: 5.0 mg/kg/injection, schedule: Q01DX005 (ip), vehicle: Klucel (hydroxypropylcellulose) (HPC)) was 106 % of control, the T/C (dose: 10.0 mg/kg/injection, schedule: Q01DX005 (ip), vehicle: Klucel (hydroxypropylcellulose) (HPC)) was 110 % of control and the T/C (dose: 20.0 mg/kg/injection, schedule: Q01DX005 (ip), vehicle: Klucel (hydroxypropylcellulose) (HPC)) was 112 % of control. The T/C (dose: 40.0 mg/kg/injection, schedule: Q01DX005 (ip), vehicle: Klucel (hydroxypropylcellulose) (HPC)) was 114 % of control.

For `CN1C(=O)/C(=c2\sc3nc4ccccc4n3c2=O)c2cc(Br)ccc21`, the T/C (dose: 100.0 mg/kg/injection, schedule: Q01DX001 (ip), vehicle: Klucel (hydroxypropylcellulose) (HPC)) was 99 % of control, the T/C (dose: 200.0 mg/kg/injection, schedule: Q01DX001 (ip), vehicle: Klucel (hydroxypropylcellulose) (HPC)) was 99 % of control and the T/C (dose: 400.0 mg/kg/injection, schedule: Q01DX001 (ip), vehicle: Klucel (hydroxypropylcellulose) (HPC)) was 101 % of control.

For `CCn1c(=N)sc2nc3ccccc3n2c1=O`, the T/C [4] was 103 % of control and the T/C [5] was 103 % of control.
